Laboratory results from ChEMBL document CHEMBL1201862, “PubChem BioAssay data set” (2004).
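Step 1: Grow cells in 96-well plates. Step 2: Expose to compound for 48 hours at 5 concentrations. Step 3: Interpolate endpoints linearly; if unreached, use highest concentration. GI50 = concentration required for 50% inhibition of growth.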 Activity calls are given as the source filed them. No stated cut-off is given here; in the data, active = GI50 up to about 1.1 µM and inactive = higher. Peptide text beside a SMILES is read from it. * marks the point of attachment. Cbz = O=C(OCc1ccccc1)*; CH2Cl = ClC*

Key:
Assay in all cases: NCI tumour cell line growth inhibition, 48 h
[1] = system: LOX IMVI
[2] = system: NCI-H226
[3] = system: SF-295
[4] = system: A549
[5] = system: HCT-116
[6] = system: A498
[7] = system: T47D
[8] = system: UACC-62
[9] = system: RXF 393
[10] = system: HCC 2998
[11] = system: SK-MEL-5
[12] = system: MDA-N
[13] = system: EKVX
[14] = system: OVCAR-3
[15] = system: NCI-H23
[16] = system: HOP-62
[17] = system: TK-10
[18] = system: UO-31
[19] = system: BT-549
[20] = system: KM-20L2

| SMILES | GI50 [1] | GI50 [2] | GI50 [3] | GI50 [4] | GI50 [5] | GI50 [6] | GI50 [7] | GI50 [8] | GI50 [9] | GI50 [10] | GI50 [11] | GI50 [12] | GI50 [13] | GI50 [14] | GI50 [15] | GI50 [16] | GI50 [17] | GI50 [18] | GI50 [19] | GI50 [20] |
| --- | --- | --- | --- | --- | --- | --- | --- | --- | --- | --- | --- | --- | --- | --- | --- | --- | --- | --- | --- | --- |
| Cc1cnc(/C=N\NC(N)=S)c2cccc(N)c12 | 0.445 µM (active) | 1.39 µM (inactive) | 1.97 µM (inactive) | 2.58 µM (inactive) | 0.724 µM (active) | 10.8 µM (inactive) | 0.497 µM (active) | 0.359 µM (active) | 0.728 µM (active) | 0.578 µM (active) | 2.04 µM (inactive) | 0.767 µM (active) | 1.1 µM (active) | 0.426 µM (active) | 0.334 µM (active) | 0.904 µM (active) | 5.78 µM (inactive) | 0.52 µM (active) | 0.536 µM (active) |  |
| CCOC(=O)NC(Nc1ccc(F)cc1)(C(=O)OCC)C(F)(F)F (stereo not given) | 0.153 µM (active) | > 100 µM (inactive) | 8.38 µM (inactive) | 10.5 µM (inactive) | 3.12 µM (inactive) | > 100 µM (inactive) | 3.72 µM (inactive) | 0.121 µM (active) | > 100 µM (inactive) | > 100 µM (inactive) | 0.192 µM (active) | > 62.1 µM (inactive) | > 100 µM (inactive) | > 100 µM (inactive) | > 100 µM (inactive) | > 100 µM (inactive) | > 24.7 µM (inactive) | 8.59 µM (inactive) | > 100 µM (inactive) |  |
| N#Cc1c(-c2ccccc2)c(/N=N/c2ccc(F)cc2)c(=O)n2c1[nH]c1ccccc12 | 9.35 µM (inactive) | 7.28 µM (inactive) | 5.25 µM (inactive) | 3.08 µM (inactive) | 2.03 µM (inactive) | 8.02 µM (inactive) | 4.05 µM (inactive) | 4.82 µM (inactive) | 10.4 µM (inactive) | 6.24 µM (inactive) | 1.53 µM (inactive) | 4.17 µM (inactive) | 2.45 µM (inactive) | 2.14 µM (inactive) | 5.28 µM (inactive) | 6.15 µM (inactive) | 5.57 µM (inactive) | 2.97 µM (inactive) | 8.85 µM (inactive) |  |
| O=c1[nH]c2c(c3ccccc13)CCc1ccccc1-2 |  | > 100 µM (inactive) | > 100 µM (inactive) | > 100 µM (inactive) | > 100 µM (inactive) |  |  | > 10 µM (inactive) | > 100 µM (inactive) | > 100 µM (inactive) | > 100 µM (inactive) |  | > 100 µM (inactive) | > 100 µM (inactive) | > 100 µM (inactive) |  | > 100 µM (inactive) | > 100 µM (inactive) |  | > 100 µM (inactive) |
| N#CC(C#N)=c1c2nsnc2c(=C(C#N)C#N)c2nsnc12 | 1.58 µM (inactive) | 16.7 µM (inactive) | 1.89 µM (inactive) | 3.6 µM (inactive) | 1.98 µM (inactive) |  |  |  | 1.28 µM (inactive) | 1.77 µM (inactive) |  |  | 4.2 µM (inactive) | 3.66 µM (inactive) | 2.01 µM (inactive) | 2.04 µM (inactive) | 16 µM (inactive) | 1.84 µM (inactive) |  | 1.8 µM (inactive) |
| CCOc1ccc(NC(=O)C(=O)C(/C(=N/N)C(=O)OC)c2nc3ccc([N+](=O)[O-])cc3nc2O)cc1 (stereo not given) | > 100 µM (inactive) | > 100 µM (inactive) | > 100 µM (inactive) | > 100 µM (inactive) | > 100 µM (inactive) | > 100 µM (inactive) | > 100 µM (inactive) | > 100 µM (inactive) | 36.1 µM (inactive) | > 100 µM (inactive) | > 100 µM (inactive) | > 100 µM (inactive) | > 100 µM (inactive) | > 100 µM (inactive) | > 100 µM (inactive) | > 100 µM (inactive) | > 100 µM (inactive) | > 100 µM (inactive) | > 100 µM (inactive) |  |
| c1c[nH]c(C23C4C5C6C4C2C6C53)n1 (stereo not given) | > 100 µM (inactive) | > 100 µM (inactive) | > 100 µM (inactive) | > 100 µM (inactive) | > 100 µM (inactive) | > 100 µM (inactive) | > 100 µM (inactive) | > 100 µM (inactive) | > 100 µM (inactive) | > 100 µM (inactive) | > 100 µM (inactive) | > 100 µM (inactive) | > 100 µM (inactive) | > 100 µM (inactive) | > 100 µM (inactive) | > 100 µM (inactive) | > 100 µM (inactive) | > 100 µM (inactive) | > 100 µM (inactive) |  |
| O=C1C(Br)=CC2(C=C1Br)CCNC1=C2C(=O)c2[nH]cnc2C1=O | 13.5 µM (inactive) | 20.4 µM (inactive) | 16.2 µM (inactive) | 18.3 µM (inactive) | 14.7 µM (inactive) | 19 µM (inactive) | 15.6 µM (inactive) | 11.9 µM (inactive) | 16.3 µM (inactive) | 25.8 µM (inactive) | 11.2 µM (inactive) | 1.77 µM (inactive) | 18.1 µM (inactive) | 15.7 µM (inactive) | 12.6 µM (inactive) | 17.2 µM (inactive) | 29.2 µM (inactive) | 15.9 µM (inactive) | 19.2 µM (inactive) |  |
| c1ccc(-c2cc(C3CO3)c3ccccc3n2)cc1 (stereo not given) | 18.6 µM (inactive) | 19.1 µM (inactive) | 35.2 µM (inactive) | 20.1 µM (inactive) | 16.5 µM (inactive) | 19.7 µM (inactive) | 18.9 µM (inactive) | 18.5 µM (inactive) | 13.5 µM (inactive) | 20 µM (inactive) | 16.7 µM (inactive) | 19.1 µM (inactive) | 18.2 µM (inactive) | 17.9 µM (inactive) | 19.1 µM (inactive) | 26.5 µM (inactive) | 21.6 µM (inactive) | 1.52 µM (inactive) | 20.7 µM (inactive) |  |
| C=CCN1C(=O)/C(=C/c2ccco2)N=C1SC/C=C/C | 26.5 µM (inactive) | > 100 µM (inactive) | 40.4 µM (inactive) | 49.3 µM (inactive) | 27.5 µM (inactive) | 43.3 µM (inactive) | 43.6 µM (inactive) | 25.9 µM (inactive) | 29.2 µM (inactive) | 93.8 µM (inactive) | 20.6 µM (inactive) | 21.7 µM (inactive) | 37.7 µM (inactive) | 35.6 µM (inactive) | 50.9 µM (inactive) | > 100 µM (inactive) | > 100 µM (inactive) | 73.5 µM (inactive) | 40.2 µM (inactive) |  |
| COc1cc(/C=C/C=C2\CC/C(=C\C=C\c3ccc(O)c(OC)c3)C2=O)ccc1O | > 100 µM (inactive) | > 100 µM (inactive) | > 100 µM (inactive) | > 100 µM (inactive) | > 100 µM (inactive) | > 100 µM (inactive) | > 100 µM (inactive) | > 100 µM (inactive) | 3.87 µM (inactive) | > 100 µM (inactive) | > 87.9 µM (inactive) | > 100 µM (inactive) | > 97.3 µM (inactive) | > 100 µM (inactive) | > 73.1 µM (inactive) | > 100 µM (inactive) | > 100 µM (inactive) | > 82 µM (inactive) | > 100 µM (inactive) |  |
| CC[C@H]1CN(C)[C@H]2Cc3c([nH]c4ccccc34)C(=O)C[C@H]1C2C(=O)OC (stereo not given in full) | > 100 µM (inactive) | > 100 µM (inactive) | > 100 µM (inactive) | > 100 µM (inactive) | > 100 µM (inactive) | > 100 µM (inactive) | > 100 µM (inactive) | > 100 µM (inactive) | > 100 µM (inactive) | > 100 µM (inactive) | > 100 µM (inactive) | > 100 µM (inactive) | > 100 µM (inactive) | > 100 µM (inactive) | > 100 µM (inactive) | > 100 µM (inactive) | > 100 µM (inactive) | > 100 µM (inactive) | > 100 µM (inactive) |  |
| NP(=O)(Oc1c2occc2cc2ccc(=O)oc12)N(CCCl)CCCl (stereo not given) | 37.6 µM (inactive) | 74.5 µM (inactive) | > 100 µM (inactive) | 62.2 µM (inactive) | > 100 µM (inactive) | > 100 µM (inactive) | 48.5 µM (inactive) | > 100 µM (inactive) | 0.0611 µM (active) | > 100 µM (inactive) | 27.9 µM (inactive) | > 100 µM (inactive) | > 100 µM (inactive) | > 100 µM (inactive) | > 100 µM (inactive) | > 100 µM (inactive) | > 100 µM (inactive) | > 100 µM (inactive) | > 100 µM (inactive) |  |
| O=C1C(Cl)=C(N2C(=O)CCC2=O)C(=O)c2ccccc21 | 27.3 µM (inactive) | > 100 µM (inactive) | > 100 µM (inactive) | 31.8 µM (inactive) | 22.8 µM (inactive) | 37.9 µM (inactive) | 32.4 µM (inactive) | 34 µM (inactive) | 18.5 µM (inactive) | 22.5 µM (inactive) | 19.8 µM (inactive) | 19.4 µM (inactive) | 34.2 µM (inactive) | 17.9 µM (inactive) | 29 µM (inactive) | > 100 µM (inactive) | 39.8 µM (inactive) | 15 µM (inactive) | 20.5 µM (inactive) |  |
| CC(C)CC(NC(=O)OCc1ccccc1)C(=O)NC(Cc1ccccc1)C(=O)CCl (stereo not drawn) (Cbz-Leu-Phe-CH2Cl; configuration not given here) | 0.719 µM (active) | 1.91 µM (inactive) | 17.5 µM (inactive) | 15.9 µM (inactive) | 1.68 µM (inactive) | 23.6 µM (inactive) | 2.21 µM (inactive) | 2.71 µM (inactive) | 1.7 µM (inactive) | 13.2 µM (inactive) | 1.82 µM (inactive) | 1.56 µM (inactive) | 18.6 µM (inactive) | 3.72 µM (inactive) | 2.03 µM (inactive) | 16.1 µM (inactive) | 1.82 µM (inactive) | 6.46 µM (inactive) | 2.47 µM (inactive) |  |
